Test results from patent US7683176B2, “Triazolyl pyridyl benzenesulfonamides” (ChemoCentryx, Inc., priority 2006, dated 2010).

Target: T1, CCR2 (Homo sapiens, UniProt P41597)
T1 construct: chemokine expressing cells (such as THP-1 cells for CCR2 assay or MOLT-4 cells for CCR9 assay); host or cells: THP-1
T1 sequence (P41597 1-360 isoform P41597-2): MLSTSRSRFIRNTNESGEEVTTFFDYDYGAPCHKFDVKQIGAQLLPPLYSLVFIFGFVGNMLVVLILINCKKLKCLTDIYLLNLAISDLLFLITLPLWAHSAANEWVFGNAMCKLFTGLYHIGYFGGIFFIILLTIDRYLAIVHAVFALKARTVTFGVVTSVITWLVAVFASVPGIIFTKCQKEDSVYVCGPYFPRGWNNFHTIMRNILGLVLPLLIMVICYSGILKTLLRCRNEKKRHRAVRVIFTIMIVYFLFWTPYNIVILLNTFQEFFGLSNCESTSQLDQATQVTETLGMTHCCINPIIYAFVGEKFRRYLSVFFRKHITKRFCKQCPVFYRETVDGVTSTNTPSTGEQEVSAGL
Experiment: CCR2 activity in one of the chemotaxis, binding or calcium mobilization assays
Type: cell-based
Conditions: binding or calcium mobilization assays (THP-1 cells, MCP-1)
Procedure: THP-1 cells and MOLT-4 cells were obtained from the American Type Culture Collection (Manassas, Va.) and cultured in RPMI tissue culture medium supplemented with 10% fetal calf serum (FCS) in a humidified 5% CO2 incubator at 37° C. Recombinant human chemokine proteins MCP-1 and TECK were obtained from R&D Systems (Minneapolis, Minn.). ^125I-labeled MCP-1 protein was obtained from Amersham (Piscataway, N.J.). ChemoTX® chemotaxis microchambers were purchased from Neuro Probe (Gaithersburg, Md.). CyQUANT® cell proliferation kits were purchased from Molecular Probes (Eugene, Oreg.). Calcium indicator dye Fluo-4 AM was purchased from Molecular Devices (Mountain View, Calif.).
Conventional migration assay was used to determine the efficacy of potential receptor antagonists in blocking migration mediated through chemokines (such as CCR2 or CCR9). This assay was routinely performed using the ChemoTX® microchamber system with a 5-μm pore-sized polycarbonate membrane. To begin such an assay, chemokine expressing cells (such as THP-1 cells for CCR2 assay or MOLT-4 cells for CCR9 assay) were harvested by centrifugation of cell suspension at 1000 RPM on a GS-6R Beckman centrifuge. The cell pellet was resuspended in chemotaxis buffer (HBSS with 0.1% BSA) at 10×10^6 cells/mL for CCR2 assay (5×10^6 cells/mL for CCR9 assay). Test compounds at desired concentrations were prepared from 10 mM stock solutions by serial dilutions in chemotaxis buffer. An equal volume of cells and compounds were mixed and incubated at room temperature for 15 minutes. Afterwards, 20 μL of the mixture was transferred onto the porous membrane of a migration microchamber, with 29 μL of chemokine ligand (0.1 nM chemokine MCP-1 protein for CCR2 assay or […] chemokine TECK protein for CCR9 assay) placed at the lower chamber. Following an incubation at 37° C. (90-minute for CCR2; 150-minute for CCR9), during which cells migrated […] the chemokine gradient, the assay was terminated by removing the cell drops from atop the filter. To quantify cells migrated across the membrane, 5 μL of 7× CyQUANT® solution was added to each well in the lower chamber, and the fluorescence signal measured on a Spectrafluor Plus fluorescence plate reader (TECAN, Durham, N.C.). The degree of inhibition was determined by comparing migration signals between compound-treated and untreated cells. IC50 calculation was further performed by non-linear squares regression analysis using Graphpad Prism (Graphpad Software, San Diego, Calif.).
Calcium flux assay measures an increase in intracellular calcium following ligand-induced receptor activation. In the screen of chemokine antagonists, it was used as a secondary assay carried out on a FLIPR® machine (Molecular Devices, Mountain View, Calif.). To begin an assay, chemokine expressing cells (such as THP-1 cells for CCR2 assay or MOLT-4 cells for CCR9 assay) were harvested by centrifugation of cell suspension, and resuspended to 1.5×10^6 cells/mL in HBSS (with 1% fetal calf serum). Cells were then labeled with a calcium indicator dye Fluo-4 AM for 45 minutes at 37° C. with gentle shaking. Following incubation, cells were pelletted, washed once with HBSS and resuspended in the same buffer at a density of 1.6×10^6 cells/mL. One hundred microliters of labeled cells were mixed with 10 μL of test compound at the appropriate concentrations on an assay plate. Chemokine protein (MCP-1 at a final concentration of 0.1 nM for CCR2 assay or TECK at a final concentration of 25 nM for CCR9 assay) to activate the receptor. The degree of inhibition was determined by comparing calcium signals between compound-treated and untreated cells. IC50 calculations were further performed by non-linear squares regression analysis using Graphpad Prism (Graphpad Software, San Diego, Calif.).
Ligand binding assay was used to determine the ability of potential CCR2 antagonists to block the interaction between CCR2 and its ligand MCP-1. […]

SMILES | IC50 [µM]
C[C@@H](CO)n1cnnc1-c1ncc(Cl)cc1NS(=O)(=O)c1ccc(Cl)c(C(F)(F)F)c1 | < 1
COc1ccc(F)cc1-n1cnnc1-c1ncc(Cl)cc1NS(=O)(=O)c1ccc(Cl)c(C(F)(F)F)c1 | < 1
Cc1cnc(-c2nncn2-c2cc[nH]n2)c(NS(=O)(=O)c2ccc(Cl)c(C(F)(F)F)c2)c1 | < 1
Cc1ccccc1-n1cnnc1-c1ncc(Cl)cc1NS(=O)(=O)c1ccc(Cl)c(C(F)(F)F)c1 | < 1
O=S(=O)(Nc1cc(Cl)cnc1-c1nncn1-c1n[nH]cc1Br)c1ccc(Cl)c(C(F)(F)F)c1 | < 1
O=S(=O)(Nc1cc(Cl)cnc1-c1nncn1-c1cn[nH]c1)c1ccc(Cl)c(C(F)(F)F)c1 | < 1
Cc1n[nH]cc1-n1cnnc1-c1ncc(Cl)cc1NS(=O)(=O)c1ccc(Cl)c(C(F)(F)F)c1 | < 1
O=S(=O)(Nc1cc(Cl)cnc1-c1nnc(C(F)(F)F)n1-c1cc[nH]n1)c1ccc(Cl)c(C(F)(F)F)c1 | < 1
Cc1c[nH]nc1-n1cnnc1-c1ncc(Cl)cc1NS(=O)(=O)c1ccc(Cl)c(C(F)(F)F)c1 | < 1
Cc1nnc(-c2ncc(Cl)cc2NS(=O)(=O)c2ccc(Cl)c(C(F)(F)F)c2)n1-c1n[nH]cc1Br | < 1
COCc1nnc(-c2ncc(Cl)cc2NS(=O)(=O)c2ccc(Cl)c(C(F)(F)F)c2)n1-c1cc[nH]n1 | < 1
O=S(=O)(Nc1cc(Cl)cnc1-c1nncn1-c1cc[nH]n1)c1ccc(Cl)c(Cl)c1 | < 1
O=S(=O)(Nc1cc(Cl)cnc1-c1nncn1-c1ccon1)c1ccc(Cl)c(Cl)c1 | < 1
O=S(=O)(Nc1cc(Cl)cnc1-c1nncn1-c1n[nH]cc1Br)c1ccc(Cl)c(Cl)c1 | < 1
O=S(=O)(Nc1cc(Cl)cnc1-c1nnc(Br)n1-c1n[nH]cc1Br)c1ccc(Cl)c(Cl)c1 | < 1
O=S(=O)(Nc1cc(Br)cnc1-c1nncn1-c1cc[nH]n1)c1ccc(Cl)c(C(F)(F)F)c1 | < 1
O=S(=O)(Nc1cc(Br)cnc1-c1nncn1-c1ccon1)c1ccc(Cl)c(C(F)(F)F)c1 | < 1
Cn1nccc1-n1cnnc1-c1ncc(Cl)cc1NS(=O)(=O)c1ccc(Cl)c(C(F)(F)F)c1 | < 1
O=S(=O)(Nc1cc(Cl)cnc1-c1nncn1C1CCNC1)c1ccc(Cl)c(C(F)(F)F)c1 (stereo not drawn) | < 1
CCCn1cnnc1-c1ncc(Cl)cc1NS(=O)(=O)c1ccc(Cl)c(C(F)(F)F)c1 | < 1
CO[C@H]1CNC[C@@H]1n1cnnc1-c1ncc(Cl)cc1NS(=O)(=O)c1ccc(Cl)c(C(F)(F)F)c1 | < 1
O=S(=O)(Nc1cc(Cl)cnc1-c1nncn1C1CCNCC1)c1ccc(Cl)c(C(F)(F)F)c1 | < 1
CC(CCO)n1cnnc1-c1ncc(Cl)cc1NS(=O)(=O)c1ccc(Cl)c(C(F)(F)F)c1 (stereo not drawn) | < 1
CC(CN(C)C)n1cnnc1-c1ncc(Cl)cc1NS(=O)(=O)c1ccc(Cl)c(C(F)(F)F)c1 (stereo not drawn) | < 1
O=S(=O)(Nc1cc(Cl)cnc1-c1nnc(C(F)(F)F)n1-c1ccccc1)c1ccc(Cl)c(C(F)(F)F)c1 | < 1
CC(C)n1c(CN(C)C)nnc1-c1ncc(Cl)cc1NS(=O)(=O)c1ccc(Cl)c(C(F)(F)F)c1 | < 1
Cc1cnc(-c2nnc(C(N)=O)n2-c2ccccc2)c(NS(=O)(=O)c2ccc(Cl)c(C(F)(F)F)c2)c1 | < 1

The remaining lines, values ahead:

IC50 [µM] | SMILES
< 1 | CCOC(=O)c1nnc(-c2ncc(Cl)cc2NS(=O)(=O)c2ccc(Cl)c(C(F)(F)F)c2)n1C(C)C
< 1 | CC(C)n1c(C(N)=O)nnc1-c1ncc(Cl)cc1NS(=O)(=O)c1ccc(Cl)c(C(F)(F)F)c1
< 1 | CC(C)n1c(C(=O)N(C)C)nnc1-c1ncc(Cl)cc1NS(=O)(=O)c1ccc(Cl)c(C(F)(F)F)c1
< 1 | CC(C)n1c(Br)nnc1-c1ncc(Cl)cc1NS(=O)(=O)c1ccc(Cl)c(C(F)(F)F)c1
< 1 | CC(C)c1nnc(-c2ncc(Cl)cc2NS(=O)(=O)c2ccc(Cl)c(C(F)(F)F)c2)n1-c1cc[nH]n1
< 1 | CCOC(=O)c1nnc(-c2ncc(Cl)cc2NS(=O)(=O)c2ccc(Cl)c(C(F)(F)F)c2)n1-c1ccon1
< 1 | NC(=O)c1nnc(-c2ncc(Cl)cc2NS(=O)(=O)c2ccc(Cl)c(C(F)(F)F)c2)n1-c1ccon1
< 1 | CN(C)C(=O)c1nnc(-c2ncc(Cl)cc2NS(=O)(=O)c2ccc(Cl)c(C(F)(F)F)c2)n1-c1ccon1
< 1 | COCc1nnc(-c2ncc(Cl)cc2NS(=O)(=O)c2ccc(Cl)c(C(F)(F)F)c2)n1-c1ccon1
< 1 | CC(C)n1c(N)nnc1-c1ncc(Cl)cc1NS(=O)(=O)c1ccc(Cl)c(C(F)(F)F)c1
< 1 | O=S(=O)(Nc1cc(Cl)cnc1-c1nnc(C2CC2)n1-c1cc[nH]n1)c1ccc(Cl)c(C(F)(F)F)c1
< 1 | CCNC(=O)c1nnc(-c2ncc(Cl)cc2NS(=O)(=O)c2ccc(Cl)c(C(F)(F)F)c2)n1-c1ccon1
< 1 | O=C(c1nnc(-c2ncc(Cl)cc2NS(=O)(=O)c2ccc(Cl)c(C(F)(F)F)c2)n1-c1ccon1)N1CCCC1
< 1 | CC(C)NC(=O)c1nnc(-c2ncc(Cl)cc2NS(=O)(=O)c2ccc(Cl)c(C(F)(F)F)c2)n1-c1ccon1
< 1 | CC(C)(C)c1nnc(-c2ncc(Cl)cc2NS(=O)(=O)c2ccc(Cl)c(C(F)(F)F)c2)n1-c1cc[nH]n1
< 1 | O=S(=O)(Nc1cc(Cl)cnc1-c1nnc(Br)n1-c1ccon1)c1ccc(Cl)c(C(F)(F)F)c1
< 1 | CCN(C)C(=O)c1nnc(-c2ncc(Cl)cc2NS(=O)(=O)c2ccc(Cl)c(C(F)(F)F)c2)n1-c1ccon1
< 1 | Cc1cnc(-c2nnc(C(N)=O)n2-c2ccon2)c(NS(=O)(=O)c2ccc(Cl)c(C(F)(F)F)c2)c1
< 1 | NC(=O)c1nnc(-c2ncc(Cl)cc2NS(=O)(=O)c2ccc(Cl)c(Cl)c2)n1-c1ccon1
< 1 | CC(C)n1c(Cl)nnc1-c1ncc(Cl)cc1NS(=O)(=O)c1ccc(Cl)c(C(F)(F)F)c1
< 1 | CC(C)n1c(CO)nnc1-c1ncc(Cl)cc1NS(=O)(=O)c1ccc(Cl)c(C(F)(F)F)c1
< 1 | O=S(=O)(Nc1cc(Cl)cnc1-c1nnc(CO)n1-c1ccon1)c1ccc(Cl)c(C(F)(F)F)c1
< 1 | O=C(c1nnc(-c2ncc(Cl)cc2NS(=O)(=O)c2ccc(Cl)c(C(F)(F)F)c2)n1-c1ccon1)N1CCOCC1
< 1 | Cc1ccc(S(=O)(=O)Nc2cc(Cl)cnc2-c2nnc(C(N)=O)n2-c2ccon2)cc1C(F)(F)F
